Common to all, as to test: Ligand binding assay
One experiment addresses T1, RARβ (Homo sapiens, UniProt P10826).
T1 sequence (P10826 1-448 isoform P10826-2): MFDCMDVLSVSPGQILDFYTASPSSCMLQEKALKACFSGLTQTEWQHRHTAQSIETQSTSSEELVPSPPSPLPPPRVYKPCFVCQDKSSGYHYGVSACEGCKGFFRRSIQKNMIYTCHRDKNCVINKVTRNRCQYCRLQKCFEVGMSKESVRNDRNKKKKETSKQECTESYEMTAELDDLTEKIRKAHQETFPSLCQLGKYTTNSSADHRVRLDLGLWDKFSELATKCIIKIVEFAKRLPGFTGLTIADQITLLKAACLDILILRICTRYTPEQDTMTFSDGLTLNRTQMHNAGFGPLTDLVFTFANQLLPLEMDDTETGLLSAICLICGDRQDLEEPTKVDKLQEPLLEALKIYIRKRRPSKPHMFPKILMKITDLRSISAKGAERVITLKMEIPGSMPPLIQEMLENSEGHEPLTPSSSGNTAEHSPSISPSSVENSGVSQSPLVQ
Conditions: read-out: Kd RABβ. The source says: (§1) Other assays described below, measure the ability of the compounds of the present invention to bind to, and/or activate various retinoid receptor subtypes. When in these assays a compound binds to a given receptor subtype and activates the transcription of a reporter gene through that subtype, then the compound is considered an agonist of that receptor subtype. […] In the below described assays the ability of the compounds to bind to RARα, RARβ, RARγ, RXRα, RXRβ and RXR.tau. receptors, and the ability or inability of the compounds to activate transcription of a reporter gene through these receptor subtypes can be tested.
(§2) A holoreceptor transactivation assay and a ligand binding assay which measure the antagonist/agonist like activity of the compounds of the invention, or their ability to bind to the several retinoid receptor subtypes, respectively, are described in published PCT Application No. WO WO93/11755 (particularly on pages 30-33 and 37-41) published on Jun. 24, 1993, the specification of which is also incorporated herein by reference. A detailed experimental procedure for holoreceptor transactivations has been described by Heyman et aL Cell 68, 397-406, (1992); Allegretto et aL J. Biol. Chem. 268, 26625-26633, and Mangelsdorf et aL The Retinoids: Biology, Chemistry and Medicine, pp 319-349, Raven Press Ltd., New York, which are expressly incorporated herein by reference. The results obtained in this assay are expressed in EC50 numbers, as they are also in the chimeric receptor transactivation assay. The results of ligand binding assay are expressed in Kd numbers. (See Cheng et aL Biochemical Pharmacology Vol. 22 pp 3099-3108, expressly incorporated herein by reference.)

A further experiment addresses T2, RARγ (Homo sapiens, UniProt P13631).
T2 sequence (P13631 1-454): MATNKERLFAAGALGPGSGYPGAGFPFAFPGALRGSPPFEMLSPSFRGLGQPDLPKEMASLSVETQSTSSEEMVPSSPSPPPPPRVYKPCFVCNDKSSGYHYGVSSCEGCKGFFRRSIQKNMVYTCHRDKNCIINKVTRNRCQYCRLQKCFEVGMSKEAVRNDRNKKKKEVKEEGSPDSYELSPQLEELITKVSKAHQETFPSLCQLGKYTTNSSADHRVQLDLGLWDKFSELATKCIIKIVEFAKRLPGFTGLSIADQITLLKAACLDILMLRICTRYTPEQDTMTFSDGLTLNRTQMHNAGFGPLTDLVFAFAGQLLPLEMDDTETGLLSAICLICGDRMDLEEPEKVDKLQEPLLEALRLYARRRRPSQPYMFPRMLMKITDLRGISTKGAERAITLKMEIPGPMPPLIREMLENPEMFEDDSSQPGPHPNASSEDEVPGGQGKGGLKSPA
Description: as §1, §2

The next experiment concerns the target T3, RARα (Homo sapiens, UniProt P10276).
T3 sequence (P10276 1-462): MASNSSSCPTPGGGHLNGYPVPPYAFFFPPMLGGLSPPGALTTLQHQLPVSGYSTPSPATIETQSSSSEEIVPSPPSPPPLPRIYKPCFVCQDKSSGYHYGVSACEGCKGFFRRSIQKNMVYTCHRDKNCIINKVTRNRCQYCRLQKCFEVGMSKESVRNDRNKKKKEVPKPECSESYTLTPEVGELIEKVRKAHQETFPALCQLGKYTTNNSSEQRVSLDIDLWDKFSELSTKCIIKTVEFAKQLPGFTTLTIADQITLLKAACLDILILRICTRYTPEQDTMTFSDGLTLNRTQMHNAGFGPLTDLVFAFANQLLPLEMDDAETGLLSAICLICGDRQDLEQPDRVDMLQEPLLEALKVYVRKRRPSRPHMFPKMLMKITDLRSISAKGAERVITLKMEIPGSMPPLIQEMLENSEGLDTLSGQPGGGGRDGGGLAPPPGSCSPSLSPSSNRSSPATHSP
Description: as §1, §2

pKd: −log10 of the molar value.

The values that follow come from patent US6225494A, “Trisubstituted phenyl derivatives having retinoid agonist or inverse agonist type biological activity” (Allergan Sales, Inc., priority 1999, dated 2001).

One may read the pKd as −log10 of the Kd, conventionally taken in molar units. On to `Cc1ccc(C(=O)c2cc(C#Cc3ccc(C(=O)O)cc3)ccc2O)cc1` [Compound 5, 4-[[4'-hydroxy-3'-(4"-methyl)benzoyl]phenylethynyl]benzoic acid], for which the pKd at RARβ is 7.01; at RARγ it was 6.05; on RARα it was 6.47.

As to `C=C(c1ccc(C)cc1)c1cc(C#Cc2ccc(C(=O)O)cc2)ccc1O` [Compound 8, 4-[[4'-Hydroxy-3'-(1-p-tolyl)vinyl]phenylethynyl]benzoic acid], the pKd on RARβ is 5.88; on RARγ it was 5.28; on RARα it was 5.09.

As to `C=C(c1ccc(C)cc1)c1cc(C#Cc2ccc(C(=O)O)cc2)ccc1OCOC` [Compound 9, 4-[[4'-methoxymethoxy-3'-(1-p-tolyl)vinyl]phenylethynyl]benzoic acid], the pKd at RARβ was 6.82; on RARγ, 6.14; at RARα, 6.03.

For `C=C(c1ccc(C)cc1)c1cc(C#Cc2ccc(C(=O)O)cc2)ccc1OC` [Compound 12, 4-[[4'-Methoxy-3'-(1-p-tolyl)vinyl]phenylethynyl]benzoic acid], the pKd on RARβ was 6.71; on RARγ, 6.40; at RARα it was 5.84.

As to `COCOc1ccc(C#Cc2ccc(C(=O)O)cc2)cc1C(=O)c1ccc(C)cc1` [Compound 13], the figures for the pKd at RARβ, at RARγ and at RARα were 6.31, 6.04 and 5.93, respectively.

Consider `C=C(c1ccc(C)cc1)c1cccc(C#Cc2ccc(C(=O)O)cc2)c1` [Compound 20, 4-[[3'-(1-p-Tolyl)vinyl]phenylethynyl]benzoic acid], for which the results for the pKd on RARβ, at RARγ and on RARα were 6.65, under 6.00 and under 6.00, respectively.

For `COc1ccc(C#Cc2ccc(C(=O)O)cc2)cc1C(=O)c1ccc(C)cc1` [Compound 22, 4-[[4'-methoxy-3'-(4"-methyl)benzoyl]phenylethynyl]benzoic acid], the pKd on RARβ was 6.12; on RARγ it was 5.82; on RARα it was 5.80.

As for `Cc1ccc(C(=O)c2cc(C#Cc3ccc(C(=O)O)c(F)c3)c(C)cc2O)cc1` [Compound 25, 4-[[4'-Hydroxy-2'-methyl-5'-(4"-methyl)benzoyl]phenylethynyl]-2-fluoro-benzoic acid], the pKd at RARβ was 6.66; on RARγ, 5.71; on RARα, 5.94.

Take `C=C(c1ccc(C)cc1)c1cc(C#Cc2ccc(C(=O)O)cc2)ccc1OC(C)C` [Compound 28, 4-[[4'-Isopropoxy-3'-(1-p-tolyl)vinyl]phenylethynyl]benzoic acid]: the values for the pKd at RARβ, at RARγ and at RARα were 6.27, 6.02 and 5.68, respectively.

For the molecule `C=C(c1ccc(C)cc1)c1cc(C#Cc2ccc(C(=O)O)c(F)c2)ccc1OC(C)C` [Compound 29, 4-[[4'-Isopropoxy-3'-(1-p-tolyl)vinyl]phenylethynyl]-2-fluoro-benzoic acid], the pKd is 6.63 at RARβ, 6.09 at RARγ and 5.94 at RARα.

With `C=C(c1cccc(C)c1)c1cc(C#Cc2ccc(C(=O)O)cc2)ccc1OC(C)C` [Compound 31, 4-[[4'-Isopropoxy-3'-(1-m-tolyl)vinyl]phenylethynyl]benzoic acid], the figures for the pKd on RARβ, at RARγ and on RARα were 6.31, 6.44 and 5.48, respectively.
